Common to all, as to format: biochemical
Series [1] has as its target T1, Human α-galactosidase (GalA) (Homo sapiens, UniProt P06280).
T1 construct: purchased Biotechne
T1 sequence (P06280 32-429): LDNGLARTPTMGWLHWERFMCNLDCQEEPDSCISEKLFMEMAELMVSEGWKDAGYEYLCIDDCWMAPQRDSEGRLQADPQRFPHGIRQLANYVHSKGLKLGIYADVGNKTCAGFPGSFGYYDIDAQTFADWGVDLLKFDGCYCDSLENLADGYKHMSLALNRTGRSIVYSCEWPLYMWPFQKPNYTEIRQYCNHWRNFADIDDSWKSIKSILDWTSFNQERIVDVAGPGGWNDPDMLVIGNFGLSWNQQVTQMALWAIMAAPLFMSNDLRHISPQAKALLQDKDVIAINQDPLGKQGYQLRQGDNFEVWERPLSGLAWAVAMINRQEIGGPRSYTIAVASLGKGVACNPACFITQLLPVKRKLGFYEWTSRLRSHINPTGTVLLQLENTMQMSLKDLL
In words: Covalent inhibition (inactivation) kinetics of Human α-galactosidase (GalA). Conditions: for covalent inhibition observed: at 5 mM inhibitor, NIO = No inhibition observed, pH 4.6, 37 °C. As to the method:
(§1) Recombinant Human α-galactosidase (GalA) was purchased from Biotechne, and Aspergillus oryzae β-galactosidase was purchased from Sigma. We calculated the various rate constants for covalent inhibition of these two glycosidases by compounds 1 to 4 by use of either a classical jump dilution assay or a continuous assay protocol.
(§2) First, we incubated the enzyme using at least five different inhibitor concentrations in the appropriate buffer. We then ‘jump-diluted’ the inactivation mixture by adding 4 µL aliquots of the inhibition mixture to a pre-equilibrated 196 µL buffered solution containing substrate (see assay conditions section). We monitored the enzymatic activity using either UV-vis (Cary300, Agilent Technologies, Santa Clara, CA, United States) or fluorescence (Cary Eclipse). All rate constants for inhibition (kobs) were calculated using a standard nonlinear least squares fit of enzyme activity (%) versus time data to a first-order equation. We then used a standard Michaelis–Menten expression to evaluated kinact and kinact/Ki for covalent inhibition using a standard nonlinear least squares fitting routine. However, in cases where we noted insufficient saturation of inhibitor, we used a standard linear fit of the kobs versus covalent inhibitor concentration to obtain the inhibition rate constant kinact/Ki.
(§3) Second, we also used a continuous assay protocol in which we added the enzyme to a pre-equilibrated buffered mixture containing substrate and inhibitor. We monitored the reaction continuously until we noted that the rate of fluorophore (or chromophore) became linear following the initial first-order process. We repeated these experiments for at least five other inhibitor concentrations. We calculated the apparent rate constant (kapp) at every inhibitor concentration by fitting the progress curves to equation 1 (for UV-Vis or a similar equation for fluorescence data), where Vi is the initial velocity at t = 0 and Vf is the velocity at t = ∞ [31]. (1) Abs=νft+νi−νf/kapp1−e^−kappt
(§4) The kapp values versus inhibitor concentrations were then fit to a modified Michaelis–Menten expression for competitive inhibition (equation 2), which gives the second-order inhibition parameter kinact/Ki only. (2) kapp=kreact+kinact/KiI/1+S/Km
(§5) The release of 4-nitrophenol was monitored at 400 nm, while the release of 4-methylumbelliferone was monitored at 365 nm excitation and 445 emission wavelengths. All rate constants were determined by fitting experimental data on the computer program GraphPad Prism 10.0 (GraphPad Software, Boston, MA, USA).

Series [2] deals with T2, A. oryzae GH35 β-galactosidase (LacA) (Aspergillus oryzae, UniProt Q2UCU3).
T2 construct: purchased Sigma
T2 sequence (Q2UCU3 19-1005): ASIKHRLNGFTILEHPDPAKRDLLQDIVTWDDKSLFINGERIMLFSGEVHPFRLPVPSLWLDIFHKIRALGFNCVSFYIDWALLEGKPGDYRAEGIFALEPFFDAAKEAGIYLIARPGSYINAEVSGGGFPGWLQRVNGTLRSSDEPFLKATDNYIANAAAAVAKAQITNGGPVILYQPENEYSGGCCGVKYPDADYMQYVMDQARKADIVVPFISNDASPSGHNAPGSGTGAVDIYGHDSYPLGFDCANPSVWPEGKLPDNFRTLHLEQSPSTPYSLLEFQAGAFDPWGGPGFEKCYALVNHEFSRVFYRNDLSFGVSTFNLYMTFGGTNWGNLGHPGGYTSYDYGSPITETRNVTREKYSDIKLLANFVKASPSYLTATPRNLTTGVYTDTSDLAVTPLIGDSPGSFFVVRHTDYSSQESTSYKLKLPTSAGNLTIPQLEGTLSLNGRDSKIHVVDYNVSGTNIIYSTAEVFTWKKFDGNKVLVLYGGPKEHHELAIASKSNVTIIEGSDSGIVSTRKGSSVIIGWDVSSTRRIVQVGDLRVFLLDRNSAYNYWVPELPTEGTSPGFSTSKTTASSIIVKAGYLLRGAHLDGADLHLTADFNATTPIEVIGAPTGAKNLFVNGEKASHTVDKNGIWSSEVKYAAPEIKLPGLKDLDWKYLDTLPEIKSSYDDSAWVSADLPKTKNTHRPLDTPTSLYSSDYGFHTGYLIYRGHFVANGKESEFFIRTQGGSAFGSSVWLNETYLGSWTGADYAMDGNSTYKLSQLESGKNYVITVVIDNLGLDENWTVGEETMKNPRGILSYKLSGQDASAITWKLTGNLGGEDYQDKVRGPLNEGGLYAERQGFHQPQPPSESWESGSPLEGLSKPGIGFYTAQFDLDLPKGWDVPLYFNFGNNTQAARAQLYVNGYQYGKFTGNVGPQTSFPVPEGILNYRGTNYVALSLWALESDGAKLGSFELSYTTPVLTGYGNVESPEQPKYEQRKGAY
Nature of the series: Covalent inhibition (inactivation) kinetics of A. oryzae β-galactosidase (LacA). The conditions noted are these: for kinact/Ki: 50 mM sodium acetate buffer. As to the method:
as §1, §2, §3, §4, §5

The target of series [3] is T2, A. oryzae GH35 β-galactosidase (LacA). Nature of the series: Reactivation kinetics of covalently inhibited A. oryzae β-galactosidase (LacA). Conditions: 50 mM sodium acetate buffer, pH 4.5, 0.1% BSA, 37 °C; for t1/2: half-life of covalent intermediate. As for the experimental part:
(§6) In summary, all inhibitors that covalently label either Human α-galactosidase or Aspergillus oryzae β-galactosidase display linear second-order kinetics where the slopes of the graphs give kinact/Ki (Table 1 and Table 2). That is, no saturation binding is noted even up to inhibitor concentrations of 8 mM, i.e., Ki » 8 mM. […] As a result, reactivation kinetics were monitored by diluting a quantity of inhibited enzyme into a buffered solution containing substrate. Shown in Figure 3 are the measured gradients (time intervals of 100 s) from the absorbance versus time plot of the reactivation for GH35 A. oryzae β-galactosidase with 1–3.
(§7) We monitored a concentrated solution of enzyme and inhibitor at 37 °C until the measured enzyme activity dropped to under 5% of that initially measured. We then added a small volume (typically 0.5 µL) to a pre-equilibrated reactivation buffer containing substrate (200 µL). We then continuously monitored the release of either the chromophore or the fluorophore. We then calculated signal versus time gradient slope at uniform time intervals to give reaction rates. We fit these computed values to a standard first-order rate equation (Prism 10.0) to give us the first order reactivation rate constant (kreact).

The target in series [4] is T1, Human α-galactosidase (GalA). In words: Reactivation kinetics of covalently inhibited Human α-galactosidase (GalA). The conditions noted are these: 50 mM sodium citrate buffer, pH 4.6, 50 mM NaCl, 0.1% BSA, 37 °C; for t1/2: half-life of covalent intermediate. As for the experimental part: as §6, §7

Entries after “also recorded” stand apart in the source; their conditions may differ.

As to `O[C@@H]1[C@@H](O)[C@@H](O)C=C[C@H]1Cl` [Compound 1, 5,5a-didehydro-5a-carba-β-L-arabino-hexopyranosyl chloride], in series [1], the “covalent inhibition observed” value is reported as “no measurable covalent inhibition; also recorded: NIO ^a at 5 mM”. In addition, the kinact/KI in series [2] (pH 4.5, 50 mM sodium acetate buffer, pH 4.5, 0.1% BSA, 37 °C) is 17 ± 0.5 M⁻¹ s⁻¹. Further, in series [3], the kreact entry was “(2.5 ± 0.1) × 10^−3 s^−1” and the t1/2 came to 4.6 ± 0.2 min.

Take `OC1C=CC(Cl)C(O)C1O` (stereo not drawn) [Compound 2]: in series [1] (pH 4.6, 50 mM sodium citrate buffer, pH 4.6, 50 mM NaCl, 0.1% BSA, 37 °C), the kinact/KI turned out to be 0.25 ± 0.004 M⁻¹ s⁻¹. In addition, in series [4], the kreact entry was “(5.1 ± 0.2) × 10^−4 s^−1” and the t1/2 is on record as 22.5 ± 0.7 min. The kinact/Ki in series [2] (pH 4.5, 0.1% BSA, 37 °C) came to 47 ± 2 M⁻¹ s⁻¹. Besides, in series [3], the kreact result is listed as “(2.6 ± 0.2) × 10^−3 s^−1” and the t1/2 was 4.5 ± 0.3 min.

For the compound `OC1C=CC(Cl)C(O)C1O` (stereo not drawn) [Compound 3], the kinact/Ki in series [1] (50 mM sodium citrate buffer, pH 4.6, 50 mM NaCl, 0.1% BSA, 37 °C) worked out at 0.18 ± 0.01 M⁻¹ s⁻¹; in series [2] (pH 4.5, 0.1% BSA, 37 °C) it was 2.7 ± 0.04 M⁻¹ s⁻¹. In addition, the values for the kreact result in series [4] and in series [3] were “(4.9 ± 0.2) × 10^−4 s^−1” and “(2.6 ± 0.2) × 10^−3 s^−1”, respectively. The figures for the t1/2 in series [4] and in series [3] were 23.4 ± 0.9 min and 4.5 ± 0.3 min, respectively.

For `O[C@@H]1[C@H](O)[C@@H](O)C=C[C@H]1Cl` [Compound 4], the “covalent inhibition observed” value is listed as “no measurable covalent inhibition; also recorded: NIO ^a at 5 mM” in series [1] and “no activity; also recorded: NIO ^a at 1 mM” in series [2] (at 1 mM inhibitor, NIO = No inhibition observed, pH 4.5, 37 °C).

For the origin of these results see article PMC11510499, “Mechanism-Based Allylic Carbasugar Chlorides That Form Covalent Intermediates with α- and β-Galactosidases” (Molecules, 2024).
